{
  "source": "patent US10369131B2",
  "about": "“Ultrapure tetrahydrocannabinol-11-oic acids” (Corbus Pharmaceuticals, Inc., priority 2013, dated 2019)",
  "key": {"HL-60 cells": {"tested_on": "HL-60 cells", "assay": "PGJ synthesis in HL-60 cells (ELISA)", "assay_type": "cell-based", "description": "The CB2 antagonist SR144528 reduced ultrapure AJA-induced PGJ synthesis in HL60 immune system cells at low concentrations (squares). […] DMSO control (open circles). Treatments of cells was carried out in 48 well plates with 20,000 cells/500 μl RPMI/FCS media/well. Cells were incubated for 20 hrs at 37° C. and 5% CO2. Media was changed to 500 μl of serum free RPMI and TNFα (10 nM) added. […] N=4."}, "female CD-1 mice [1]": {"tested_on": "female CD-1 mice", "assay": "Ring immobility (catalepsy) test", "description": "The cataleptic response was measured using the ring test described by Pertwee (Pertwee R G, The Ring Test. A Quantitative Method of Assessing the Cataleptic Effect of Cannabis in Mice, Br. J. Pharmacol. 46:753-763 (1972)). Mice were placed on a horizontal wire ring 5.5 cm in diameter attached to a 16 cm vertical rod. The hind paws and fore paws were placed at opposite sides of the ring. The ambient temperature was maintained at 30° C. and the environment was free of auditory stimuli and bright lights. The response was calculated as the fraction of time the mouse was immobile over a five (5) minute test period.\nA dose response was conducted for ultrapure AJA to oral doses of 0.05 to 56 mg/kg.\n(§1) Compounds were administered at a volume of […] via oral gavage.\n(§2) Female CD-1 mice (20-25 g), obtained from Charles River (Raleigh, N.C.), were used for assessment in hot plate nociception, rectal temperature, and ring immobility assays. Separate mice were used for testing each dose of each compound in this battery of procedures. The mice had free access to food and water when in their home cages. All animals were kept in a temperature-controlled (20-22° C.) environment with a 12-hour light-dark cycle (lights on at 7 a.m.).\nEach mouse was tested in a battery of three tests, in which cannabinoid CB1 agonists produce in vivo effects in mice (Martin et al., 1991): antinociception (hot plate assay), decreased rectal temperature and ring immobility. Prior to administration of the test compound, rectal temperature and baseline latency in the hot plate test were measured in the mice. The latter procedure involved placing the mouse on a heated surface (mouse cold/hot plate analgesia apparatus; Stoelting, Wood Dale, Ill.) at a setting of 55° C. Time until the mouse lifts or licks a paw was measured, whereupon the mouse was removed from the apparatus. […] After measurement of baseline temperature and hot plate latency, mice were administered vehicle or drug via oral gavage. […] Subsequently, the mice were placed on a 5.5 cm ring attached at a height of 16 cm to a ring stand, and the amount of time the animals remained motionless during a 5 min period was recorded. In addition, the number of times the mouse fell or jumped off the ring was recorded. If the mouse fell off the ring more than 5 times, the test was terminated.\nRectal temperature values were expressed as the difference between control temperature (before injection) and temperature following drug administration (Δ° C.). Antinociception was expressed as the percent maximum possible effect (MPE) using a 30-s maximum test latency as follows: [(test−control)/(30−control)]×100. During assessment for catalepsy, the total amount of time (in seconds) that the mouse remained motionless on the ring apparatus (except for breathing and whisker movement) was measured and was used as an indication of catalepsy-like behavior. This value was divided by 300 s and multiplied by 100 to obtain a percent immobility. If the mouse fell off the ring more than 5 times, the test was terminated and ring immobility data for the mouse were not included in analysis. Separate between-subjects ANOVAs were used to analyze each measure. Significant differences from control (vehicle) were further analyzed with Tukey post hoc tests (α=0.05) as necessary."}, "female CD-1 mice [2]": {"tested_on": "female CD-1 mice", "assay": "Rectal temperature (mouse hypothermia assay)", "description": "as §1, §2\nEach mouse was tested in a battery of three tests, in which cannabinoid CB1 agonists produce in vivo effects in mice (Martin et al., 1991): antinociception (hot plate assay), decreased rectal temperature and ring immobility. Prior to administration of the test compound, rectal temperature and baseline latency in the hot plate test were measured in the mice. The latter procedure involved placing the mouse on a heated surface (mouse cold/hot plate analgesia apparatus; Stoelting, Wood Dale, Ill.) at a setting of 55° C. Time until the mouse lifts or licks a paw was measured, whereupon the mouse was removed from the apparatus. […] Subsequently, the mice were placed on a 5.5 cm ring attached at a height of 16 cm to a ring stand, and the amount of time the animals remained motionless during a 5 min period was recorded. In addition, the number of times the mouse fell or jumped off the ring was recorded. […]\nRectal temperature values were expressed as the difference between control temperature (before injection) and temperature following drug administration (Δ° C.). Antinociception was expressed as the percent maximum possible effect (MPE) using a 30-s maximum test latency as follows: [(test−control)/(30−control)]×100. During assessment for catalepsy, the total amount of time (in seconds) that the mouse remained motionless on the ring apparatus (except for breathing and whisker movement) was measured and was used as an indication of catalepsy-like behavior. […]"}, "female CD-1 mice [3]": {"tested_on": "female CD-1 mice", "assay": "Mouse hot plate test for antinociception", "assay_type": "in vivo", "conditions": "60 min after administration"}, "tumor growth": {"tested_on": "tumor growth", "conditions": "doses in the anti-inflammatory range, compared with THC; cited from earlier work"}, "[4]": {"tested_on": "neuropathic pain patients", "conditions": "man, cited from earlier work"}, "[5]": {"conditions": "rat, at peak pharmacodynamic time points; cited from earlier work"}, "female CD-1 mice [6]": {"tested_on": "female CD-1 mice", "conditions": "oral; AJA reported in U.S. Pat. No. 5,338,753; cited from earlier work"}, "CB1 receptor": {"target": "CB1 receptor (Homo sapiens, UniProt P21554)", "sequence (P21554 whole entry)": "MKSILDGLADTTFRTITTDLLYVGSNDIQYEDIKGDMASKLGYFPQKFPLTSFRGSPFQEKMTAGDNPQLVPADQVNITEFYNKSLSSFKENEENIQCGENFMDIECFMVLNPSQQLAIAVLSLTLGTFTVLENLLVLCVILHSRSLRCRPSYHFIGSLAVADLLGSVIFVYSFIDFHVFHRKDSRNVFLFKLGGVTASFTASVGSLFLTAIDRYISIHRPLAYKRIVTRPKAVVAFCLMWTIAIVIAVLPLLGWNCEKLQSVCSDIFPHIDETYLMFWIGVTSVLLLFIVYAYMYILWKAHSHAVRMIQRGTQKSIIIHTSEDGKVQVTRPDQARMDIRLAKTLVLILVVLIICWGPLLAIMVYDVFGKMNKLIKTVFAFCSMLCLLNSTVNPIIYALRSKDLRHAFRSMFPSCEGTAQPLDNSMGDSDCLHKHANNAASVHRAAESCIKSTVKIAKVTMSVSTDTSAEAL", "conditions": "earlier ajulemic acid synthesis products, literature; cited from earlier work"}, "[7]": {"conditions": "oral 30 and 100 mg/kg (both doses), vs vehicle, p<0.05"}},
  "data": [
    {"compound": "Cc1c(C(=O)NN2CCCCC2)nn(-c2ccc(Cl)cc2Cl)c1-c1ccc(Cl)cc1", "note": "[SR141716]", "values": [
      {"measurement": "effect of CB1 antagonist on ultrapure AJA-induced PGJ synthesis", "setting": "HL-60 cells; antagonist 10 μM, 2 hrs", "result": "much smaller effect"}
    ]},
    {"compound": "CCCCCc1cc(O)c2c(c1)OC(C)(C)[C@@H]1CCC(C)=C[C@@H]21", "note": "[Δ9-THC, reference compound]", "values": [
      {"measurement": "ring immobility", "setting": "female CD-1 mice [1]; [7]", "result": "produced significant"},
      {"measurement": "hypothermia (rectal temperature)", "setting": "female CD-1 mice [2]; [7]", "result": "produced significant"},
      {"measurement": "antinociception in the hot plate test (% MPE)", "setting": "female CD-1 mice [3]; oral 100 mg/kg only, vs vehicle, p<0.05", "result": "produced significant antinociception"}
    ]},
    {"compound": "COc1ccc2c(c1)c(CC(=O)O)c(C)n2C(=O)c1ccc(Cl)cc1", "note": "[indomethacin, reference compound]", "values": [
      {"measurement": "ring immobility", "setting": "female CD-1 mice [1]; 30 mg/kg oral", "result": "did not significantly affect"},
      {"measurement": "rectal temperature", "setting": "female CD-1 mice [2]; 30 mg/kg oral", "result": "did not significantly affect"},
      {"measurement": "antinociception in the hot plate test (% MPE)", "setting": "female CD-1 mice [3]; 30 mg/kg oral", "result": "did not significantly affect"}
    ]},
    {"compound": "CCCCCCC(C)(C)c1cc(O)c2c(c1)OC(C)(C)[C@@H]1CC=C(C(=O)O)C[C@@H]21", "note": "[AJA, (6aR,10aR)-3-(1′,1′-dimethylheptyl)-Δ8-tetrahydro-cannabinol-9-carboxylic acid]", "values": [
      {"measurement": "inhibition of tumor growth", "setting": "tumor growth", "result": "small but significant inhibition of tumor growth greater than that produced by THC"},
      {"measurement": "cannabis-like psychotropic adverse events", "setting": "[4]; neuropathic pain patients", "result": "absence"},
      {"measurement": "pain scores in neuropathic pain patients", "setting": "[4]", "result": "reduce pain scores"},
      {"measurement": "brain levels relative to those seen in the plasma", "setting": "[5]", "result": "25-30%"}
    ]},
    {"compound": "SR144528", "values": [
      {"measurement": "effect of CB2 antagonist on ultrapure AJA-induced PGJ synthesis", "setting": "HL-60 cells", "result": "reduced"}
    ]},
    {"compound": "CCCCCCC(C)(C)c1cc(O)c2c(c1)OC(C)(C)[C@@H]1CC=C(C(=O)O)C[C@@H]21", "note": "[HU-239]", "values": [
      {"measurement": "doses at which active in the mouse hot plate assay", "setting": "female CD-1 mice [6]", "result": "< 0.5", "unit": "mg/kg"},
      {"measurement": "ratio of CB1/CB2 binding", "setting": "CB1 receptor", "result": 0.19}
    ]}
  ]
}
